# Source: patent US11951202B2, “Compounds and compositions for use” (DR WELLER LIMITED, priority 2016, dated 2024)
# Tested on: full thickness human skin homogenate
# Test: In vitro NO generation by NO specific Clarke-type electrode, UVA-irradiated skin homogenate
# Type: biochemical
# Conditions: UVA radiation, nitrite source
# Text: Electrochemical sensors are widely used for the measurement of NO generation and Clark-type electrodes are most widely used as they are commercially available and easy to handle. The principle of these sensors is that NO diffuses through a gas-permeable membrane and a thin film of electrolyte, followed by oxidation on the working electrode. This oxidation creates a current that is proportional to the concentration of NO outside the membrane. The advantage of electrochemical NO sensors is the ability to directly detect NO concentration in solution or in biological samples with a low nanomolar detection limit. This makes NO electrodes an excellent tool for studying NO generation especially in biological samples.
# We used the Clarke electrode technique to investigate the mechanism of UVA light dependent NO generation in skin and cosmetically acceptable components which could facilitate augment the endogenous process.
# A 10% (g/mL) full thickness human skin homogenate in phosphate buffer was prepared using a glass/glass homogenizer. The homogenate was preheated at 56° C. for 1 hour to inactivate enzymatic generation of NO.
# 200 ul of homogenate was placed in a quartz cuvette in a thermostatically controlled environment and irradiated with broadband (320-400 nm) UVA radiation. Baseline signals were recorded. […]
smiles,measurement,value
N[C@@H](CSSC[C@H](N)C(=O)O)C(=O)O [Cystine],sustained UV induced NO generation from nitrite,able to participate in sustained NO generation
"O=C(O)CCCCC1CCSS1 (centres unmarked) [Lipoic acid (Oxidised), Lipoic acid]",sustained UV induced NO generation from nitrite,able to participate in sustained NO generation
